Assay results published in paper PMC12040169 (PLOS Biology, 2025).

Test: in vitro
Details: human, hela cells, % viability

Point of comparison: `Cc1cc(Cn2ccc(C(F)(F)F)n2)c(C)c(-c2c(C#N)c(N)nc3c2CCCCC3)c1` [CBK267928], viability at 28.5 h, 10 µM 104%. Against it:
- CCO/C(C)=C/c1sc2ccc3ccccc3c2[n+]1CCCS(=O)(=O)[O-] [CBK260948] — lower, 95.1%
- O=C(CN1CCOCC1)Nc1ccc(S(=O)(=O)Nc2cc(Cl)cc(Cl)c2)cc1 [CBK001239] — lower, 89.1%
- CCc1nn(CC(=O)N2CCCC2)c(=O)c2cc3sc(C)cc3n12 [CBK284122] — lower, 82.9%
- CCC1CCCCN1C(=O)c1cccc(OC)c1 (centres unmarked) [CBK081504] — lower, 98%
- COC(=O)C1CCN(Cc2ccc(-c3nnn(CC(=O)NCc4ccc(C)cc4)n3)cc2)C1 (centres unmarked) [CBK155406T] — higher, 105%
- O=C(Nc1nnc(-c2ccncc2)o1)c1ccc(F)cc1 [CBK287431] — lower, 80%
- CCn1cc(NS(=O)(=O)c2ccc(N3CCCC3=O)cc2)cn1 [CBK305922] — lower, 85.3%
- Cc1cc(C)n(CC(=O)N[C@H]2CC[C@H]2N)c(=O)n1 [CBK307647] — lower, 91.9%
- CN1CC[C@H](c2nc3ncccc3[nH]2)C1 [CBK289384] — lower, 76.8%
- Cc1ccccc1CN1CC[C@H]2[C@@H](C1)[C@H](c1ccsc1)CN2C(=O)c1ccc(F)cc1 [CBK285638] — lower, 102%
- C=CCOc1cccn2c(N(C=O)Cc3ccccc3)c(CC)nc12 [CBK147827] — lower, 92.2%
- N#Cc1cnc2c(-c3ccccc3)c(Cc3ccccc3)nn2c1N [CBK270191] — lower, 91.8%
- O=C(Cc1cccs1)N1CCC(c2nnc3n2CCCCC3)CC1 [CBK284606] — lower, 83.1%
- NNc1nccc(Nc2ccccc2C(=O)O)n1 [CBK263145] — lower, 95.9%
- O=C(Nc1nc(-c2cc3ccccc3o2)cs1)c1ccc(F)cc1 [CBK287756] — higher, 114%
- COc1ccc(OC)c2[nH]c(C(=O)N3CCCC34CC=CC4)cc12 [CBK282814] — lower, 85.9%
- C=CCn1c(-c2sc(NC(=O)c3ccc(Cl)cc3F)nc2C)n[nH]c1=S [CBK295361] — lower, 94.7%
- CCOC(=O)c1cccnc1-c1cncnc1 [CBK149236] — higher, 118%
- CSCCC(NC(=O)NCCc1ccccc1)c1nnc2ccccn12 (centres unmarked) [CBK304417] — lower, 102%
- O=C(Nc1cc(NC(=O)C2C3C=CC(C3)C2C(=O)O)ccc1Cl)c1cccs1 (centres unmarked) [CBK263959] — lower, 89.6%
- COc1ccc(/C=C2/SC(=O)N(CCNC3=NS(=O)(=O)c4ccccc43)C2=O)cc1 [CBK265545] — lower, 83.4%
- COc1ccc(-c2nc3ccccc3s2)cc1NC(=O)c1ccc(OCC(C)C)cc1 [CBK268878] — lower, 94.7%
- Clc1cncc(OC(c2ccccc2)C2CC2)n1 (centres unmarked) [CBK176042] — lower, 78%
- Cc1ccc(C2(C(=O)N3CCC(O)(c4ccccn4)CC3)CC2)cc1 [CBK283754] — lower, 96.4%
- c1ccc2nc(N3CCCC3)c(OC3CCNC3)nc2c1 (centres unmarked) [CBK115288] — lower, 99.9%
- Cc1cc(C(=O)O)c2[nH]c3c(c2c1)CCCC3 [CBK028885] — lower, 95.5%
- CC(C)(C)OC(=O)N1CCC(NCCc2ccccn2)C1 (centres unmarked) [CBK304839] — lower, 94.2%
- Cn1ncc(N2CCC(CNC(=O)c3cc(F)ccc3Cl)C2)cc1=O (centres unmarked) [CBK307286] — lower, 92.4%
- O=C(NCC1CCCO1)C1CCN(C(=O)c2cccc(F)c2)CC1 (centres unmarked) [CBK304633] — lower, 90.5%
- Cc1nc2n(CCN3CCCCC3)c3ccccc3n2c1C(=O)c1cccs1 [CBK278242B] — lower, 88.6%
- CC(=O)c1cccc(-c2cnc(N)c(-c3ccc(O)cc3)n2)c1 [CBK122508] — lower, 98.1%
- CSCCC(NC(=O)CCc1ccccc1)c1nnc2ccccn12 (centres unmarked) [CBK304350] — lower, 95.4%
- Nc1nnnn1CC(=O)N/N=C/c1cc2c(cc1[N+](=O)[O-])OCO2 [CBK262187] — higher, 117%
- Cc1onc(-c2ccccc2)c1CNC(=O)Cn1cc(C)c(=O)[nH]c1=O [CBK144094] — lower, 87.6%
- Cc1nc2ccc(C(=O)NC3CCCOC3)cc2s1 (centres unmarked) [CBK282509] — lower, 82.8%
- Cc1c(C(C)NCC(O)c2ccncc2)cnn1-c1ccc(C#N)cc1 (centres unmarked) [CBK305403] — lower, 85%
- C=CCOc1ccc(-c2nnn(CC(=O)O)n2)cc1 [CBK269772] — lower, 87.8%
- O=S(=O)(c1ccc(C(F)(F)F)cc1Cl)N1CCN(Cc2cccc3cccnc23)CC1 [CBK063075] — higher, 110%
- O=C1N[C@H]2CCCN(C(=O)Cn3cccnc3=O)[C@H]2CCCCCOc2ccccc21 [CBK292096] — higher, 109%
- Cc1cc(NC(=O)CCCc2ccccc2)nc2c1c(=O)oc1ccccc12 [CBK291204] — higher, 109%
- CCc1cn(C[C@H](NC(=O)C2CCC2)C(=O)O)c(=O)[nH]c1=O [CBK289663] — lower, 97.1%
- COc1cccc(C(=O)Nc2nc(-c3ccccc3)cs2)c1OC [CBK287697] — the same, 104%
- CCc1nn(CC(=O)N(CC)CC)c(=O)c2cc3occc3n12 [CBK283656] — lower, 91%
- COc1ccc(C(C)C)cc1-c1cn2ccnc2c(Nc2ccc(N3CCOCC3)cc2)n1 [CBK037338] — lower, 103%
- Cc1cc(S(=O)(=O)Nc2ccccc2-c2nnnn2C(C)C)c(C)o1 [CBK306259] — higher, 111%
- CN(C(=O)CN1CSCC1=O)c1nc2c(s1)CC(c1ccccc1)CC2 (centres unmarked) [CBK305526] — lower, 91.6%
- CC(C)S(=O)(=O)n1ccn(-c2cccc(C(F)(F)F)c2)c1=O [CBK106577] — lower, 88%
- Cc1oc2c(c1CC(=O)N(C)CCN(C)C)C(=O)CC(C)(C)C2 [CBK282171] — higher, 105%
- C=CCn1c(Cc2csc(NC(=O)c3cccc([N+](=O)[O-])c3)n2)n[nH]c1=S [CBK295339] — higher, 106%
- Nc1ncn(Cc2ccccc2)c2nc(SCc3ccccc3)nc1-2 [CBK025744] — higher, 106%
- Cc1cc(CN2CCN(C(=O)NCc3cccnc3)CC2)on1 [CBK305627] — higher, 114%
- Cc1ccc(S(=O)(=O)c2ccc(C)c(S(=O)(=O)N3CCC(C)CC3)c2)cc1S(=O)(=O)N1CCC(C)CC1 [CBK261743] — lower, 95.8%
- COc1nc2ccccc2nc1CCc1nc(-c2ccccc2)no1 [CBK269840] — lower, 86%
- O=C(O)c1cc(NS(=O)(=O)c2ccc3c(c2)OCCCO3)ccc1F [CBK296731] — the same, 104%
- Cc1ccc(Cl)cc1NC(=O)CC(C(=O)O)N(C)C (centres unmarked) [CBK267105] — higher, 112%
- CC(=O)Nc1cc(C(=O)Nc2ccc(Br)cc2)ccc1C [CBK267788] — lower, 84.1%
- Cc1c(CN(C)C(=O)c2cccc(NC(=O)C3CCCO3)c2)cnn1C (centres unmarked) [CBK305416] — lower, 103%
- CCOC(=O)N1C(=O)c2ccccc2NC1(C(F)(F)F)C(F)(F)F [CBK025725] — lower, 102%
- CC(=O)Nc1cccc(C(=O)N2CCN(Cc3ccc4c(c3)OCO4)CC2)c1 [CBK270031] — lower, 89.2%
- CCCCC1CCC(C(=O)Oc2ccccc2OCCO)CC1 (centres unmarked) [CBK081498] — lower, 90.6%
- CN1CCC(N2CCN(C(=O)c3ccc(-c4ccc(S(C)(=O)=O)cc4)nc3)CC2)CC1 [CBK158862] — lower, 91.6%
- Cc1ccc(S(=O)(=O)N2CCN(c3ccc([N+](=O)[O-])c(N4CCN(C)CC4)c3)CC2)cc1 [CBK264795] — higher, 118%
- NCc1cnc2c(c1)CCC2 [CBK018584G] — lower, 90.8%
- O=C1N[C@@H]2CCN(Cc3cnccn3)C[C@H]2C/C=C/CC2(CCOCC2)C(=O)N[C@H]1Cc1ccccc1 [CBK292189] — lower, 97.3%
- Cc1cc(C)n(CCOc2nonc2N)n1 [CBK025818] — higher, 117%
- COc1cccc(COc2cncc(Cl)n2)c1OC [CBK176057] — lower, 86.3%
- O=C(Nc1ccccc1C(=O)O)c1ccc(Cl)c(S(=O)(=O)N2CCCCC2)c1 [CBK261763] — higher, 113%
- Fc1ccc(SCCc2ccccn2)cc1 [CBK026491G] — lower, 82.9%
- Cc1ccn(CCC(=O)NC(C)c2cccnc2)n1 (centres unmarked) [CBK282197] — lower, 97.6%
- O=[N+]([O-])c1cnc(NCCCn2ccnc2)c([N+](=O)[O-])c1 [CBK262511] — lower, 94.4%
- COc1ccc(C(C)(C)C)cc1S(=O)(=O)NC1CC(C)(C)NC(C)(C)C1 [CBK267865] — lower, 102%
- CSc1cccc(NC(=O)NCCN2CCNC2=O)c1 [CBK057191] — lower, 103%
- CCOC(=O)c1sc(NS(=O)(=O)c2ccc(-c3ccccc3)cc2)nc1C [CBK003784] — higher, 106%
- C=C(C)Cn1c(SCC(C)C)nnc1-c1ccccc1Cl [CBK200078] — lower, 92.4%
- COC(=O)c1sc2cc(C(F)(F)F)cnc2c1-c1cccnc1 [CBK089885] — higher, 112%
- Cc1ccc(C2c3c(oc4ccccc4c3=O)C(=O)N2CCCCCC(=O)O)cc1 (centres unmarked) [CBK287158] — lower, 94.1%
- Cc1[nH]c2ccccc2c1/C=N/NC(=O)C1COc2ccccc2O1 (centres unmarked) [CBK261482] — lower, 90.9%
- CCOC(=O)CNS(=O)(=O)c1cccc(Cl)c1C [CBK004702] — lower, 103%
- Cc1ccc(C(O)CN2CCC(O)(c3ccc(F)cc3)CC2)cc1 (centres unmarked) [CBK283309] — lower, 94.5%
- N#Cc1ccc(NC(=O)c2ccc(-n3cnnc3)cc2Cl)cc1 [CBK269758] — lower, 87.2%
- CC(Oc1cccc(Cl)c1)C(=O)N/N=C/c1cccc(Oc2ccccc2)c1 (centres unmarked) [CBK262113] — lower, 77.5%
- COc1ccc(Cl)cc1NC(=O)NCCN1CCCCC1 [CBK268169] — higher, 112%
- Cc1ccc(S(=O)(=O)c2ccc(C)c(S(N)(=O)=O)c2)cc1S(N)(=O)=O [CBK261664] — lower, 83.6%
- Cc1c(C(=O)N(C)Cc2cc3ccccc3o2)nnn1C1CCNCC1 [CBK304307C] — lower, 96.4%
- CN1CCCN(c2cncc(-c3ccc(F)cc3F)n2)CC1 [CBK065858] — lower, 97.9%
- CC(C)(CNC(=O)Cn1cc(C(=O)NC2CCCCC2)ccc1=O)c1ccccc1F [CBK286099] — lower, 89%

Same assay, conditions: human, hela cells, % viability, bulk resorufin, single well

Point of comparison: `CCc1cc(C)cc(OCCOc2ccccc2C=C2C(=O)NC(=S)NC2=O)c1` [CBK263579], viability at 28.5 h, 10 µM 120%. Against it:
- O=C1NC(=S)N(Cc2ccco2)C(=O)/C1=C\c1cn(CCOc2ccc(F)cc2)c2ccccc12 [CBK265573] — lower, 80.9%
